Measured values taken from ChEMBL document CHEMBL1132317, “Solution structure of iron(III)-anthracycline complexes” (J Med Chem, 1999).

Test system: K562
Experiment: Cytotoxic activity against K562 erythroleukemic cells
Assay type: functional, cell-based
Settings: Homo sapiens

CC(=O)[C@]1(O)Cc2c(O)c3c(c(O)c2[C@@H](O[C@H]2C[C@H](N)[C@H](O)[C@H](C)O2)C1)C(=O)c1ccccc1C3=O [IDARUBICIN]
IC50: 2 nM
